Results published in PMC12624743 (ACS Infectious Diseases, 2025).
Values after ≈ are worked out from the molar mass of the structure shown.

Key:
[1] = test system: N. gonorrhoeae FA1090 (ATCC 700825); test: MIC by agar dilution, parental strain FA1090; format: cell-based; details: Neisseria gonorrhoeae, ATCC700825, parental strain FA1090, GyrA WT / ParC WT
Method: A series of isogenic N. gonorrhoeae strains was constructed that carried the specific target mutations GyrA^A92T or GyrA^D90N either alone or in combination with ParC^D86N or GyrA^S91F/D95G in a ciprofloxacin-susceptible strain, FA1090 (ATCC 700825).
All N. gonorrhoeae isolates were cultured and grown on GC agar plates or in fastidious broth (Remel, 07664). Minimum inhibitory concentration (MIC) of test compounds was determined by an agar dilution method, the reference testing method for N. gonorrhoeae according to the standards of the Clinical and Laboratory Standards Institute and the CDC. MIC values were determined after incubation at 37 °C for 48 h in 5% CO2.

[2] = test system: N. gonorrhoeae FA1090-Q1 (GyrA^S91F/D95G, ParC WT); test: MIC by agar dilution, fluoroquinolone-resistant GyrA^S91F/D95G strain; format: cell-based; details: Neisseria gonorrhoeae
Method: Minimum inhibitory concentration (MIC) of test compounds was determined by an agar dilution method, the reference testing method for N. gonorrhoeae according to the standards of the Clinical and Laboratory Standards Institute and the CDC.

O=C(O)c1cn(C2CC2)c2cc(N3CCNCC3)c(F)cc2c1=O [ciprofloxacin]
MIC [1]: 0.004 µg/mL
MIC [2]: 0.25 µg/mL (≈ 0.754 µM)
